Measurements from paper PMC10223284, “Category-Based Toxicokinetic Evaluations of Data-Poor Per- and Polyfluoroalkyl Substances (PFAS) using Gas Chromatography Coupled with Mass Spectrometry” (Toxics, 2023).
Several values for one entry are separate records, joined by “and”; a condition that tells them apart may be missing. Equal entries are not always repeated. Where two headings read alike, the source gives them in different places.

Columns and labels:
human plasma [1] = experiment: Ultracentrifugation (UC) plasma protein binding assay, fraction unbound in plasma (fup); conditions: for Aqueous Fraction / Aqueous Fraction, Run-specific Avg: amount measured in aqueous fraction after ultracentrifugation, unit not given; for Aqueous Fraction: replicates A, B, C; for Aqueous Fraction, Run-specific Avg: run average; for fup: human plasma, 10 μM, ultracentrifugation, 37 °C; for Fup.Med: median fraction unbound in plasma; for Fup.Med / Fup.point: UC assay Level4; for Fup.point: point estimate of fraction unbound in plasma
[2] = In vitro-in vivo extrapolation (IVIVE) to Css and administered equivalent dose (AED); set-up: species or system human; conditions: for Clhep: IVIVE, hepatocyte Clint scaled to whole-liver clearance; for AED: administered equivalent dose from LOEC and Css; for Fub: fub=fup/(B:P), Fub set to 1 if needed; for CLint: scaled with HPGL 110 mill cells/g, Vl 1596 g
Procedure, shortened: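 Administered equivalent doses come from pairing modelled Css with literature in vitro LOECs. Css itself is predicted by IVIVE from experimental hepatic Clint, scaled up to whole-liver clearance in L/h, and experimental fraction unbound in plasma. That fraction was adjusted to unbound-in-blood via blood:plasma partitioning.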

in vitro = conditions: both, human, plasma
[3] = tested on: pooled human cryopreserved primary hepatocyte suspensions; experiment: Hepatic metabolic stability (hepatocyte clearance) assay, substrate depletion; assay type: in vitro ADME; conditions: for Linear Regression Results, Best-Fit Values, Slope: hepatocyte time course
Procedure, shortened: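 Substrate depletion of 1 μM compound, 37 °C, with pooled human hepatocytes (50-donor, 50,000 cells/100 μL) in William's E; samples quenched in acetonitrile up to 240 min, triplicate time points. Intrinsic clearance (μL/min/million hepatocytes) and half-life derived from semi-log slope, background-adjusted using media-only and inactivated-cell controls; compounds with ≥50% abiotic loss at T120 excluded.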

[4] = Abiotic loss in negative controls of the hepatocyte clearance assay (cell-free media, metabolically inactivated hepatocytes); assay type: in vitro ADME; conditions: for Hep_Stab_Fail: flag for stability failure in hepatocyte clearance assay controls (1 or Fst = fail, 0 = pass)
Procedure, shortened: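 Abiotic stability was checked with media-only and inactivated-hepatocyte controls, run at T0 and T240 or, on rerun, at more time points. Compound at 1 μM, 37 °C, acetonitrile quench. Loss rates served for background subtraction, and ≥50% loss by T120 meant exclusion.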

human primary cells = conditions: cited from earlier work
human plasma [5] = experiment: Chemical stability in plasma over the UC assay time course (T5hr/T1hr); conditions: for Time 1 hr / Time 1 hr, Run-specific Avg: amount measured in plasma sample at 1 hr; for Time 1 hr / Time 5 hr: replicates A, B, C; for Time 1 hr / Time 1 hr, Run-specific Avg / Time 5 hr / Time 5 hr, Run-specific Avg: unit not given; for Time 1 hr, Run-specific Avg / Time 5 hr, Run-specific Avg: run average; for Time 5 hr / Time 5 hr, Run-specific Avg: amount measured in plasma sample at 5 hr; for PPB_Stab_Fail: flag for stability failure in the plasma protein binding assay (1 = fail, 0 = pass); for Fstable.Med: median fraction stable in plasma, UC assay Level4
[6] = Assuming 1 mg/kg/day dose rate, BW 70 kg
[7] = human steady-state plasma concentration, assuming 1 mg/kg/day dosage
[8] = Fraction Unbound (fu), Run-specific Avg, average of one UC run
[9] = Fraction Unbound (fu), individual replicates A, B, C of the UC run named in c8
[10] = Mean Fu, mean fraction unbound in human plasma over all UC replicates/runs
[11] = Mean fu, fraction unbound in human plasma, ultracentrifugation, some values based on eLOQ
[12] = hepatocyte incubation, Rep 1-3, start conc 1000 nM
[13] = buffer, no cells control, 0 vs 240 min, read-out: No Cells BkgdCl, Half Life
[14] = heat treated hepatocytes, Rep 1-3
[15] = BioSeek lowest-observed effect concentration used for AED
[16] = minimum lowest-observed effect concentration, BioSeek platform
[17] = mean T5hr/T1hr ratio in plasma over all replicates/runs

OCC(F)(F)C(F)(F)C(F)(F)C(F)(F)C(F)(F)C(F)(F)C(F)(F)C(F)(F)CO [1H,1H,10H,10H-Perfluorodecane-1,10-diol]
Aqueous Fraction (human plasma [1]): 3710.68 and 3362.14 and 3011.07 | Aqueous Fraction, Run-specific Avg (human plasma [1]): 3361.30 | fup (human plasma [1]): 0.0047 | Fup.Med (human plasma [1]): 0.00408 | Fup.point (human plasma [1]): 0.00496 | Fraction Unbound (fu), replicates A, B, C (human plasma [1]; single replicate of one UC run (aqueous fraction / Time 5 hr)): 0.005168 and 0.005301 and 0.003775 and 0.006151 and 0.003351 | Css [2, 6]: 0.68 mg/L and 1.47 uM | Clhep [2]: 4.275 L/h | AED [2]: 1.3619 mg/kg/day | Fub [2]: 0.008545 | Css [2, 7]: 1.47 µM | CLint [2]: 8753422 µL/min | fraction unbound (in vitro; [8]): 0.84 | fraction unbound (in vitro; Fraction Unbound (fu), Run-specific Avg, average of one UC run (run date in line above)): 0.00495 | fraction unbound (in vitro; [9]): 0.83 | fraction unbound (in vitro; Fraction Unbound (fu), replicates A, B, C, single replicate of one UC run (aqueous fraction / Time 5 hr)): 0.00438 | fraction unbound (in vitro; [10]): 0.841 | fraction unbound (in vitro; Mean Fu, mean fraction unbound over all replicates and runs, UC assay, human plasma): 0.00469 | fraction unbound (in vitro; [11]): 0.0047 | Concentration (nM), Time 0 min [3, 12]: 503.86 nM and 483.613 nM and 411.089 nM | Concentration (nM), Time 15 min [3, 12]: 181.506 nM and 316.777 nM and 270.544 nM | Concentration (nM), Time 30 min [3, 12]: 207.766 nM and 203.542 nM and 107.454 nM | Linear Regression Results, Best-Fit Values, Slope [3]: -0.0283 | In Vitro Clint ([3]; pooled human hepatocyte suspensions, 1 μM): 49.86 μL/min/10^6 cells | half-life at 1 μM ([4]; both sexes, human, heat treated hepatocytes control, 0 vs 240 min, read-out: HT BkgdCl, Half Life): 4.63 h | half-life at 1 μM [4, 13]: 3.43 h | Hep_Stab_Fail [4]: 0 | HT BkgdCl, Slope ([4]; heat treated hepatocytes control, 0 vs 240 min): -0.002496 | Negative Controls, Heat Treated (HT), concentration at 0 min [4, 14]: 370.156 nM and 373.519 nM and 421.129 nM | Negative Controls, Heat Treated (HT), concentration at 240 min [4, 14]: 211.286 nM and 241.673 nM and 189.092 nM | No Cells BkgdCl, Slope ([4]; no cells control, 0 vs 240 min): -0.003368 | Negative Controls, No cells (NC), concentration at 0 min ([4]; Rep 1-3): 394.883 nM and 393.112 nM and 400.596 nM | Negative Controls, No cells (NC), concentration at 240 min ([4]; Rep 1-3): 205.477 nM and 157.76 nM and 169.683 nM | LOEC (human primary cells; [15]): 2.00 µM | LOEC (human primary cells; [16]): 2 µM | Time 1 hr (human plasma [5]): 7311.43 and 5462.42 and 6036.15 | Time 1 hr, Run-specific Avg (human plasma [5]): 6270.00 | Time 5 hr (human plasma [5]): 3659.49 and 4052.89 and 4429.19 | Time 5 hr, Run-specific Avg (human plasma [5]): 3856.19 | Stability (T5hr/ T1hr), Run-specific Avg (human plasma [5]; average of one UC run): 0.615 | Stability (T5hr/ T1hr), Run-specific Avg (human plasma [5]; average of one UC run (run date in line above)): 0.958 | PPB_Stab_Fail (human plasma [5]): 0 | Mean Stability (human plasma [5]; [17]): 0.657 | Mean Stability (human plasma [5]; mean T5hr/T1hr ratio over all replicates and runs, plasma): 1.003 | Fstable.Med (human plasma [5]): 0.997 | Stability (T5hr/ T1hr), replicates A, B, C (human plasma [5]; single replicate of one UC run): 1.07 and 1.007 and 0.9333 and 0.9811 and 1.003 and 1.254

OCCC(F)(F)C(F)(F)C(F)(F)C(F)(F)F [4:2 Fluorotelomer alcohol]
Aqueous Fraction (human plasma [1]): 1744.82 and 3486.44 and 1261.67 | Aqueous Fraction, Run-specific Avg (human plasma [1]): 2164.31 | fup (human plasma [1]): 0.1680 | Fup.Med (human plasma [1]): 0.235 | Fup.point (human plasma [1]): 0.231 | Css [2, 6]: 0.0547 mg/L and 0.21 uM | Clhep [2]: 51.672 L/h | AED [2]: 9.6507 mg/kg/day | Fub [2]: 0.3055 | Css [2, 7]: 0.21 µM | CLint [2]: 6620368 µL/min | fraction unbound (in vitro; [8]): 0.17 | fraction unbound (in vitro; [9]): 0.206 | fraction unbound (in vitro; [11]): 0.168 | Concentration (nM), Time 0 min [3, 12]: 12113.7 nM and 7313.14 nM | Concentration (nM), Time 15 min [3, 12]: 1692.86 nM and 1166.53 nM and 1804.74 nM | Concentration (nM), Time 30 min [3, 12]: 339.856 nM and 404.508 nM and 458.803 nM | Concentration (nM), Time 60 min [3, 12]: 47.9903 nM and 38.9317 nM and 58.7749 nM | Concentration (nM), Time 120 min [3, 12]: 18.0283 nM and 18.9716 nM and 31.4203 nM | Concentration (nM), Time 240 min [3, 12]: 21.5215 nM and 17.4089 nM and 13.0166 nM | Linear Regression Results, Best-Fit Values, Slope [3]: -0.02281 | half-life at 1 μM [4, 13]: 2.92 h | Hep_Stab_Fail [4]: 0 | No Cells BkgdCl, Slope ([4]; no cells control, 0 vs 240 min): -0.003956 | Negative Controls, No cells (NC), concentration at 0 min ([4]; Rep 1-3): 10000 nM | Negative Controls, No cells (NC), concentration at 240 min ([4]; Rep 1-3): 3870 nM | LOEC (human primary cells; [15]): 2.00 µM | LOEC (human primary cells; [16]): 2 µM | Time 1 hr (human plasma [5]): 13164.3 and 12271.8 and 13036 | Time 1 hr, Run-specific Avg (human plasma [5]): 12824.02 | Time 5 hr (human plasma [5]): 8478.66 and 10253.1 and 9709.96 | Time 5 hr, Run-specific Avg (human plasma [5]): 9365.87 | Stability (T5hr/ T1hr), Run-specific Avg (human plasma [5]; average of one UC run): 0.730 | PPB_Stab_Fail (human plasma [5]): 0 | Mean Stability (human plasma [5]; [17]): 0.740 | Fstable.Med (human plasma [5]): 0.21

NC(=O)C(F)(F)C(F)(F)C(F)(F)F [Heptafluorobutyramide]
Aqueous Fraction, Run-specific Avg (human plasma [1]): 5392.01 | fup (human plasma [1]): 0.6030 | Fup.Med (human plasma [1]): 0.566 | Fup.point (human plasma [1]): 0.601 | Css [2, 6]: 0.0422 mg/L and 0.20 uM | Clhep [2]: 63.013 L/h | AED [2]: 101.0389 mg/kg/day | Fub [2]: 1 | Css [2, 7]: 0.20 µM | CLint [2]: 3502422 µL/min | fraction unbound (in vitro; [8]): 0.6 | fraction unbound (in vitro; Fraction Unbound (fu), replicate A, individual replicate A of the UC run dated in c8): 0.667 | fraction unbound (in vitro; Fraction Unbound (fu), replicate B, individual replicate B of the UC run dated in c8): 0.57 | fraction unbound (in vitro; Fraction Unbound (fu), replicate C, individual replicate C of the UC run dated in c8): 0.565 | fraction unbound (in vitro; Mean Fu (fraction unbound), mean over all UC runs and replicates, human plasma): 0.603 | fraction unbound (in vitro; [10]): 0.603 | fraction unbound (in vitro; [11]): 0.603 | fraction unbound (in vitro; Mean fu, fraction unbound in human plasma, used for IVIVE): 0.603 | Concentration (nM), Time 0 min [3, 12]: 988.297 nM and 784.776 nM and 618.66 nM | Concentration (nM), Time 15 min [3, 12]: 550.618 nM and 957.096 nM and 714.95 nM | Concentration (nM), Time 30 min [3, 12]: 499.471 nM and 561.118 nM and 588.537 nM | Concentration (nM), Time 60 min [3, 12]: 417.033 nM and 313.668 nM and 348.927 nM | Concentration (nM), Time 120 min [3, 12]: 201.833 nM and 266.362 nM and 226.765 nM | Linear Regression Results, Best-Fit Values, Slope [3]: -0.009975 | Hep_Stab_Fail [4]: 0 | Negative Controls, No cells (NC), concentration at 240 min ([4]; Rep 1-3): 409.23 nM and 475.181 nM and 464.709 nM | LOEC (human primary cells; [15]): 20.00 µM | LOEC (human primary cells; [16]): 20 µM | Time 1 hr, Run-specific Avg (human plasma [5]): 9336.10 | Time 5 hr, Run-specific Avg (human plasma [5]): 8817.96 | Stability (T5hr/ T1hr), Run-specific Avg (human plasma [5]; average of one UC run): 0.945 | PPB_Stab_Fail (human plasma [5]): 0 | Mean Stability (human plasma [5]; [17]): 0.963 | Mean Stability (T5hr/T1hr) (human plasma [5]; mean over all UC runs and replicates, human plasma): 0.963 | Fstable.Med (human plasma [5]): 0.999
